In patent US9480259B2, “Pyrazolopyrans having herbicidal and pharmaceutical properties” (BASF SE, priority 2012, dated 2016):

Assays:
[1] = tested on: SETFA, AMARE, POLCO, CHEAL, GALAP; experiment: Greenhouse herbicidal test, post-emergence, weed panel; assay type: in vivo; details: application rate 1 kg/ha, scale 0 to 100
Description: (§1) The seeds of the test plants were sown separately for each species. For the post-emergence treatment, the test plants were first grown to a height of 2 to 5 cm, depending on the plant habit, and only then treated with the active ingredients which had been suspended or emulsified in water. For this purpose, the test plants were either sown directly and grown in the same containers, or they were first grown separately as seedlings and transplanted into the test containers a few days prior to treatment. Depending on the species, the plants were kept at 10-25° C. or 20-35° C. The test period extended over 8 to 9 days. During this time, the plants were tended, and their response to the individual treatments was evaluated. Evaluation was carried out using a scale from 0 to 100. 100 means no emergence of the plants, or complete destruction of at least the aerial moieties, and 0 means no damage, or normal course of growth. A good herbicidal activity is given at values of at least 70 and a very good herbicidal activity is given at values of at least 85. The plants used in the greenhouse experiments belonged to the following species: [table]

[2] = tested on: AMARE (Amaranthus retroflexus); experiment: Greenhouse herbicidal test, post-emergence, AMARE; assay type: in vivo; details: application rate 1 kg/ha; for herbicidal activity against AMARE: scale 0 to 100; for pest or weed control at 1000 g/ha: Amaranthus retroflexus, scale 0 to 100, read-out: herbicidal activity against AMARE
Description: as §1

[3] = tested on: POLCO (Poligonum convolvulus); experiment: Greenhouse herbicidal test, post-emergence, POLCO; assay type: in vivo; details: application rate 1 kg/ha; for herbicidal activity against POLCO: scale 0 to 100; for pest or weed control at 1000 g/ha: Poligonum convolvulus, scale 0 to 100, read-out: herbicidal activity against POLCO
Description: as §1

[4] = tested on: CHEAL (Chenopodium album); experiment: Greenhouse herbicidal test, post-emergence, CHEAL; assay type: in vivo; details: application rate 1 kg/ha; for herbicidal activity against CHEAL: scale 0 to 100; for pest or weed control at 1000 g/ha: Chenopodium album, scale 0 to 100, read-out: herbicidal activity against CHEAL
Description: as §1

[5] = target: Arabidopsis thaliana SHMT; experiment: SHMT activity assay (ED50 SHMT), coupled with N5,N10-CH2-THF dehydrogenase, NADH at 340 nm; assay type: biochemical; details: values given as upper bounds
In short: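 His-tagged SHMT purified on Ni-NTA. NADH formation followed at 340 nm for 30 min; ED50 from inhibition of initial velocity.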

[6] = tested on: SETFA (Setaria faberi); experiment: Greenhouse herbicidal test, post-emergence, SETFA; assay type: in vivo; details: application rate 1 kg/ha, scale 0 to 100, read-out: herbicidal activity against SETFA
Description: as §1

[7] = tested on: GALAP (Galium aparine); experiment: Greenhouse herbicidal test, post-emergence, GALAP; assay type: in vivo; details: application rate 1 kg/ha, scale 0 to 100
Description: as §1

[8] = Table 2, Arabidopsis thaliana SHMT enzyme assay

SMILES	herbicidal activity against at least three of the weeds SETFA, AMARE, POLCO, CHEAL, GALAP [1]	herbicidal activity against AMARE [2]	herbicidal activity against POLCO [3]	herbicidal activity against CHEAL [4]	EC50 [5, 8]	pest or weed control at 1000 g/ha [2]	pest or weed control at 1000 g/ha [3]	pest or weed control at 1000 g/ha [4]	EC50 ([5]; Table 2)	pest or weed control at 1000 g/ha [6]	herbicidal activity against GALAP [7]
Cc1n[nH]c2c1C(c1cc(-c3nnnn3C)cc(C(F)(F)F)c1)(C1CCC1)C(C#N)=C(N)O2 (racemic) [Compound 2.399]	good or very good	very good (a very good herbicidal activity is given at values of at least 85)	good (A good herbicidal activity is given at values of at least 70)	very good (a very good herbicidal activity is given at values of at least 85)							
Cc1n[nH]c2c1C(c1cc(C(N)=S)cc(C(F)(F)F)c1)(C1CCC1)C(C#N)=C(N)O2 (racemic) [Compound 2.409]	good or very good	good (A good herbicidal activity is given at values of at least 70)	very good (a very good herbicidal activity is given at values of at least 85)	very good (a very good herbicidal activity is given at values of at least 85)							
Cc1n[nH]c2c1C(c1cc(C(F)(F)F)cc(C(F)(F)F)c1)(C1(F)CC1)C(C#N)=C(N)O2 (centres unmarked) [Compound 2.247]	good or very good				< 10 nM	≥ 85%	≥ 85%	≥ 85%			
Cc1n[nH]c2c1C(c1cc(Cl)cc(C#N)c1)(C1CCC1)C(C#N)=C(N)O2 (centres unmarked) [Compound 2.280]	good or very good				< 10 nM	≥ 85%	≥ 85%	≥ 85%			
Cc1n[nH]c2c1C(c1cc(Br)cc(C#N)c1)(C1CCC1)C(C#N)=C(N)O2 (centres unmarked) [Compound 2.281]	good or very good				< 10 nM	≥ 85%	≥ 85%	≥ 85%			
Cc1n[nH]c2c1C(c1cc(C#N)cc(C(F)(F)F)c1)(C1CCC1)C(C#N)=C(N)O2 (centres unmarked) [Compound 2.282]	good or very good				< 10 nM	≥ 85%	≥ 85%	≥ 85%			
Cc1n[nH]c2c1C(c1cc(C#N)cc(C#N)c1)(C1CCC1)C(C#N)=C(N)O2 (centres unmarked) [Compound 2.283]	good or very good				< 100 nM	≥ 85%	≥ 85%	≥ 85%			
Cc1n[nH]c2c1C(c1cc(C#N)cc(C#N)c1)(C(C)C)C(C#N)=C(N)O2 (centres unmarked) [Compound 2.335]	good or very good				< 10 nM	≥ 85%	≥ 85%	≥ 85%			
Cc1n[nH]c2c1C(c1cc(C#N)cc(C(F)(F)F)c1)(C1CC1)C(C#N)=C(N)O2 (centres unmarked) [Compound 2.362]	good or very good				< 10 nM	≥ 85%	≥ 85%	≥ 85%			
Cc1n[nH]c2c1C(c1cc(OCC#N)cc(C(F)(F)F)c1)(C1CCC1)C(C#N)=C(N)O2 (centres unmarked) [Compound 2.470]	good or very good					≥ 85%		≥ 85%	< 100 nM	≥ 85%	
COc1c(C#N)cc(C2(C3CCC3)C(C#N)=C(N)Oc3[nH]nc(C)c32)cc1C#N (centres unmarked) [Compound 2.486]	good or very good					≥ 85%		≥ 70%	< 10 nM		very good (a very good herbicidal activity is given at values of at least 85)
